Test results taken from ChEMBL document CHEMBL1157833, “Serotonin derivatives as a new class of non-ATP-competitive receptor tyrosine kinase inhibitors” (Bioorg Med Chem, 2010).
Counter-ions that a name gives are not always drawn.

Key:
[1] = target: Epidermal growth factor receptor (Homo sapiens, UniProt P00533); experiment: Inhibition of EGFR after 30 mins by chemiluminescence ELISA
[2] = target: Insulin-like growth factor 1 receptor (Homo sapiens, UniProt P08069); experiment: Inhibition of IGF1R after 30 mins by chemiluminescence ELISA
[3] = target: Vascular endothelial growth factor receptor 2 (Homo sapiens, UniProt P35968); experiment: Inhibition of VEGFR2 after 30 mins by chemiluminescence ELISA
[4] = target: Vascular endothelial growth factor receptor 3 (Homo sapiens, UniProt P35916); experiment: Inhibition of VEGFR3 after 30 mins by chemiluminescence ELISA
HUVEC [5] = experiment: Antiproliferative activity against HUVEC assessed as BrdU incorporation into mitotic active cells after 24 hrs by luminometry; format: cell-based; conditions: Homo sapiens
HUVEC [6] = experiment: Cytotoxicity against HUVEC after 24 hrs by WST1 assay; format: cell-based; conditions: Homo sapiens
MCF7 [7] = experiment: Antiproliferative activity against human MCF7 cells assessed as BrdU incorporation into mitotic active cells after 24 hrs by luminometry; format: functional, cell-based; conditions: MCF7, 24 h
MCF7 [8] = experiment: Cytotoxicity against human MCF7 cells after 24 hrs by WST1 assay; format: functional, cell-based; conditions: MCF7, 24 h
[9] = Antiproliferative activity against HEPM cells assessed as BrdU incorporation into mitotic active cells after 24 hrs by luminometry; format: cell-based; conditions: Homo sapiens
[10] = Cytotoxicity against HEPM cells after 24 hrs by WST1 assay; format: cell-based; conditions: Homo sapiens
HT-29 [11] = experiment: Antiproliferative activity against human HT-29 cells assessed as BrdU incorporation into mitotic active cells after 24 hrs by luminometry; format: functional, cell-based; conditions: HT-29, 24 h
HT-29 [12] = experiment: Cytotoxicity against human HT-29 cells after 24 hrs by WST1 assay; format: functional, cell-based; conditions: HT-29, 24 h

Sequence of Insulin-like growth factor 1 receptor (P08069 31-736 limits assumed): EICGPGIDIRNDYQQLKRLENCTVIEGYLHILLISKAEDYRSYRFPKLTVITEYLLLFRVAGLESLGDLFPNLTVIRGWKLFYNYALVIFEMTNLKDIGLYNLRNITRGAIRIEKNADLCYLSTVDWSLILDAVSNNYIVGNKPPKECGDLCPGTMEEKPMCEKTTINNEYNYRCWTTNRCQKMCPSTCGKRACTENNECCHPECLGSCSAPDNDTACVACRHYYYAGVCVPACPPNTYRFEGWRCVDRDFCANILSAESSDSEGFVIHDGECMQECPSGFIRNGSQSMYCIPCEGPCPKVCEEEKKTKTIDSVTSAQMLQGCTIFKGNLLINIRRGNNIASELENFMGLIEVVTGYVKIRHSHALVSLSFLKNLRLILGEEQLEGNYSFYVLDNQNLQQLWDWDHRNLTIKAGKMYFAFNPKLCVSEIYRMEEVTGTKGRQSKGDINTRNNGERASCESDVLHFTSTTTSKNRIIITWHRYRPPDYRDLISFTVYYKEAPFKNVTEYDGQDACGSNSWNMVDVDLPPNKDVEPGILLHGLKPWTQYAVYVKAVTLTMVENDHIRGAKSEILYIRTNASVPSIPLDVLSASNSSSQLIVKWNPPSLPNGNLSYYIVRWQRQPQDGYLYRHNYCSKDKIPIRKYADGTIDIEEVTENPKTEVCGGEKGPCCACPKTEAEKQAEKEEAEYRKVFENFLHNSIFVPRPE
Sequence of Insulin-like growth factor 1 receptor (P08069 741-1367 limits assumed): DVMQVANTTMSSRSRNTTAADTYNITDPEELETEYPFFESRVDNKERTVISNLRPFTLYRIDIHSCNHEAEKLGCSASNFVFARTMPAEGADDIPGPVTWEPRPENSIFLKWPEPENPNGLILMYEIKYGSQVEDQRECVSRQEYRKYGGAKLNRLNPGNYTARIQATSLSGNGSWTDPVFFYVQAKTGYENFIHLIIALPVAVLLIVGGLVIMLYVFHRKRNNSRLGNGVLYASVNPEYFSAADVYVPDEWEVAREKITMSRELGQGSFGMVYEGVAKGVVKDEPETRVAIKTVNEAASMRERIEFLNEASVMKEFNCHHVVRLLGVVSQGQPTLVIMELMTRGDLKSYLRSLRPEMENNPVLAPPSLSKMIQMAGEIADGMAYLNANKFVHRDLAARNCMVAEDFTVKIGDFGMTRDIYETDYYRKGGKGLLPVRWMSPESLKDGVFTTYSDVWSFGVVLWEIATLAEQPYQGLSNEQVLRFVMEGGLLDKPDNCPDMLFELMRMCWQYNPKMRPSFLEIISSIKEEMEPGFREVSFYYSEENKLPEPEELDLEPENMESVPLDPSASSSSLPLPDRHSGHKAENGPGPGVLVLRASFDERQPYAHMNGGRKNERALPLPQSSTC
Sequence of Vascular endothelial growth factor receptor 3 (P35916 whole entry): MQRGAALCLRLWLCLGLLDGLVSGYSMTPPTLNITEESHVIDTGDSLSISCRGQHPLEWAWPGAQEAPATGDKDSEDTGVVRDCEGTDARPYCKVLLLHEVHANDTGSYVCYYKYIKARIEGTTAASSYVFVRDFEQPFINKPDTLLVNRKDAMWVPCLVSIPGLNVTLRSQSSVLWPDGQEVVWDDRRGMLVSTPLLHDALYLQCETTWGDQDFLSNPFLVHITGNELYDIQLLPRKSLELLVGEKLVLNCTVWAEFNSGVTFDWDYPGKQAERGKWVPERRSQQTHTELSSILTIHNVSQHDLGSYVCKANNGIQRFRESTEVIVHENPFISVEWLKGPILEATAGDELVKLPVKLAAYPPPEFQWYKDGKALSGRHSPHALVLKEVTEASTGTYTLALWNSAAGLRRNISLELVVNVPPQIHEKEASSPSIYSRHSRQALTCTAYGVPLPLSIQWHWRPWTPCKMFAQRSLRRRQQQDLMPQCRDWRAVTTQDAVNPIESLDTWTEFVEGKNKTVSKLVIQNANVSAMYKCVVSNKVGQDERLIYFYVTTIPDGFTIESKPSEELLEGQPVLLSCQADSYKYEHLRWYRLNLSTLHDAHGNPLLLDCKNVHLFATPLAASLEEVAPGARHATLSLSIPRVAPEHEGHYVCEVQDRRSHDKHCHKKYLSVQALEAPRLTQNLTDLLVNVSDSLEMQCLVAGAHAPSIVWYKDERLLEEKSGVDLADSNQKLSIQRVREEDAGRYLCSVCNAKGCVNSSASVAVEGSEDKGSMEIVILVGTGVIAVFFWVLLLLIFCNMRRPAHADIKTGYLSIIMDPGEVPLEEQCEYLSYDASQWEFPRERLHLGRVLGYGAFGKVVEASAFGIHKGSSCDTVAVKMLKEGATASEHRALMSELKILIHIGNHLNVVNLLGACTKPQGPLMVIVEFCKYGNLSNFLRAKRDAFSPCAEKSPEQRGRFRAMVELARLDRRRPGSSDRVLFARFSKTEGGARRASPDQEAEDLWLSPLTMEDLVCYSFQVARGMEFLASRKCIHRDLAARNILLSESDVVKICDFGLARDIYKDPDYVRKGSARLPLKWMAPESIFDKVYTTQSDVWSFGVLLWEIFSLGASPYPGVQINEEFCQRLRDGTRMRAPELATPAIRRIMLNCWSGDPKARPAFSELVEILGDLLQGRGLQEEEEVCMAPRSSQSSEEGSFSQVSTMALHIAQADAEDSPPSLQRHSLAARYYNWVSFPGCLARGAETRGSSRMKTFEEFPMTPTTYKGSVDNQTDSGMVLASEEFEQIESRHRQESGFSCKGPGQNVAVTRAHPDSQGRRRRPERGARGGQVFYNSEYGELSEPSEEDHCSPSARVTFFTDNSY
Sequence of Epidermal growth factor receptor (P00533 whole entry): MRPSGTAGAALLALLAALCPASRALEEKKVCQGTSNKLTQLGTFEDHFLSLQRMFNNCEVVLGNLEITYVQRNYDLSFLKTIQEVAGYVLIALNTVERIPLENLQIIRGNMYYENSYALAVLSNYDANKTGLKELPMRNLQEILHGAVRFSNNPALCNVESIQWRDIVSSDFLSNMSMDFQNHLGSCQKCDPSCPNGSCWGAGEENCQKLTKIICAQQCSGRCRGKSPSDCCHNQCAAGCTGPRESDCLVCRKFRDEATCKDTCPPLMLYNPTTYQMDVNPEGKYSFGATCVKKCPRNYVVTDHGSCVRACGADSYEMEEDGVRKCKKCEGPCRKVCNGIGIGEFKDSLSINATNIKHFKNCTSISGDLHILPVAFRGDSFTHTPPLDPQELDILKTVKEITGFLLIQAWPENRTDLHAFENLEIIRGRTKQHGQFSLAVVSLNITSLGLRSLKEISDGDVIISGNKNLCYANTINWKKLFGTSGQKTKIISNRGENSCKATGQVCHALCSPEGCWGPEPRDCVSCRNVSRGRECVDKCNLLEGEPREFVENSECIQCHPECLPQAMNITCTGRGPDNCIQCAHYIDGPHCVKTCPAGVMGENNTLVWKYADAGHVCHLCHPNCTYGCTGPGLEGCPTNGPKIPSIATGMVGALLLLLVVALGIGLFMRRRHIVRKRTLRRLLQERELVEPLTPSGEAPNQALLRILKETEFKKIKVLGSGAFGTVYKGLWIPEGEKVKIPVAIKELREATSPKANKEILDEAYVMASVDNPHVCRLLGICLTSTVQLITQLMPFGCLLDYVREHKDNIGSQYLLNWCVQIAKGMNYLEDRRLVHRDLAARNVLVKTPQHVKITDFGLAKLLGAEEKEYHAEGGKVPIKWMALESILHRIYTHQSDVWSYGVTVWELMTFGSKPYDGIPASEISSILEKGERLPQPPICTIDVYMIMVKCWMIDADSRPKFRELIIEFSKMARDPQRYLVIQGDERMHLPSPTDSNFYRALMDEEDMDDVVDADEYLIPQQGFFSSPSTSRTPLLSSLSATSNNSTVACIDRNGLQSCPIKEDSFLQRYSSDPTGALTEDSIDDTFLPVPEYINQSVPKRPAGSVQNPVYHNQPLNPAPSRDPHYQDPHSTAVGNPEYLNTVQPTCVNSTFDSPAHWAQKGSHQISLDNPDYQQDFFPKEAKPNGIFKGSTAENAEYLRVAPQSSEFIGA

IC50 [1]	IC50 [2]	IC50 [3]	IC50 [4]	IC50 (MCF7 [7])	IC50 (HT-29 [11])	Structure (SMILES)	IC50 (HUVEC [5])	IC50 (HUVEC [6])	IC50 (MCF7 [8])	IC50 [9]	IC50 [10]	IC50 (HT-29 [12])
2.45 µM	0.98 µM	1.45 µM	1.31 µM	–	–	COc1ccc(CCOc2ccc3c(c2)c(CCN)cn3CCCCCc2ccc(SC)cc2)cc1	–	–	–	–	–	–
1.3 µM	2.36 µM	1.17 µM	4.07 µM	–	–	NCCc1cn(Cc2ccc(-c3ccccc3)cc2)c2ccc(OCCc3ccc(O)cc3)cc12	–	–	–	–	–	–
1.37 µM	2.86 µM	0.94 µM	1.81 µM	–	–	COc1ccc(CCCCCn2c3c(c4cc(OCCc5ccc(O)cc5)ccc42)CC(N)CC3)cc1 (centres undefined)	–	–	–	–	–	–
> 50 µM	> 50 µM	> 50 µM	> 50 µM	–	–	CSc1ccc(CCCCCn2cc(CCNC(=O)OC(C)(C)C)c3cc(OCCc4ccc(O)cc4)ccc32)cc1	–	–	–	–	–	–
1.25 µM	1.79 µM	1.01 µM	0.96 µM	4.79 µM	4.86 µM	COc1ccc(-c2ccc(Cn3cc(CCN)c4cc(OCCc5ccc(O)cc5)ccc43)cc2)cc1	0.75 µM	3.45 µM	4.93 µM	2.53 µM	5.7 µM	8.5 µM
1.92 µM	2.25 µM	1.22 µM	2.53 µM	–	–	CSc1ccc(CCCCCn2cc(CCN)c3cc(OCCc4ccc(O)cc4)ccc32)cc1	–	–	–	–	–	–
> 50 µM	> 50 µM	> 50 µM	> 50 µM	–	–	COCCc1ccc(O)cc1	–	–	–	–	–	–

Structure (SMILES)	IC50 [1]	IC50 [2]	IC50 [3]	IC50 [4]	IC50 (MCF7 [7])	IC50 (HT-29 [11])	IC50 (HUVEC [5])	IC50 (HUVEC [6])	IC50 (MCF7 [8])	IC50 [9]	IC50 [10]	IC50 (HT-29 [12])
NCCc1c[nH]c2ccc(O)cc12 [SEROTONIN HYDROCHLORIDE]	> 50 µM	> 50 µM	> 50 µM	> 50 µM	–	–	–	–	–	–	–	–
NC1CCc2[nH]c3ccc(OCCc4ccc(O)cc4)cc3c2C1 (centres undefined)	15.1 µM	10.6 µM	27.1 µM	34.6 µM	–	–	–	–	–	–	–	–
